Laboratory results as given in patent US8697729B2, “Small molecules modulator of epigenetic regulation and their therapeutic applications” (University of Southern California, priority 2008, dated 2014).
“Also recorded” adds a separate entry of the source.

Columns and labels:
HDAC4:MEF2 interaction = target: T1, HDAC4:MEF2 interaction (Homo sapiens, UniProt Q14814); assay: Mammalian two-hybrid luciferase reporter assay (GAL4-MEF2D / HDAC4-VP16 / GAL4Luc); type: cell-based
T1 sequence (Q14814 1-521): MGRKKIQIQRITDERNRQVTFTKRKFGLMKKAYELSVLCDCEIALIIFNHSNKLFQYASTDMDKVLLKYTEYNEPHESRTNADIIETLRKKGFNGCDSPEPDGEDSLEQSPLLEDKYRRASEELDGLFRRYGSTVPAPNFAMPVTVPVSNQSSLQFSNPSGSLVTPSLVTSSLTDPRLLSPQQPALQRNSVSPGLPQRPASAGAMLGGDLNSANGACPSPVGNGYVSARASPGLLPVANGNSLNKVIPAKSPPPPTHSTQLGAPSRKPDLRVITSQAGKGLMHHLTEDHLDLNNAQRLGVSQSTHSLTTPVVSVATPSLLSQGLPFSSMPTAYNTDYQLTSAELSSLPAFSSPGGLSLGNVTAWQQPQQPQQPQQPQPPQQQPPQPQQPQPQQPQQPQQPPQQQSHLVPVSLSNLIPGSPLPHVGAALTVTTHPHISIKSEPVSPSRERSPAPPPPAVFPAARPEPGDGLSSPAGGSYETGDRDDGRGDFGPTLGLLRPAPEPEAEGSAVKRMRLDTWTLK
Text: In a preferred embodiment, there is disclosed herein a two-hybrid system based assay includes a binding domain fused with a bait, an activating domain fused with a prey, and a reporter gene; and determining a reporter signal level.
A series of MEF2-dependent luciferase reporter assays with transiently transfected MEF2D, HDAC4 and the co-activator p300 were used initially to screen various compounds. But these assays gave weak signal and high frequency of false positives, probably due to the complex transcription activation mechanisms of MEF2 and interference from endogenous factors. Through these observations, it was discovered that a highly sensitive and specific assay that can recapitulate the molecular interaction between HDAC4 and MEF2 inside cells is essential.
Taking advantage of the structural insights, in addition to the MEF2D L67D mutant mentioned above, we introduced a number mutations in HDAC4 that had been previously shown to disrupt HDAC4:MEF2 interaction in vitro. These mutations also diminished the luciferase signal in the cell-based assay (FIG. 3b).

MEF2A (1-95) = target: T2, MEF2A (1-95) (Homo sapiens, UniProt Q02078); assay: Surface plasmon resonance (Biacore T-100) competition: MEF2A (1-95) binding to immobilized HDAC4 (aa 155-220); conditions: for binding of MEF2A to immobilized HDAC4 after incubation with compound: Biacore, increasing concentrations (FIG. 5)
T2 construct: purified MEF2A (1-95) was used as the analyte
T2 sequence (Q02078 1-95): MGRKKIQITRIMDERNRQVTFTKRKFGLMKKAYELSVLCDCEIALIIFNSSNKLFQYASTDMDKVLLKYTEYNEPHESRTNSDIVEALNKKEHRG
Text: Here HDAC4 (aa 155-220) was immobilized on a CM5 sensor chip and purified MEF2A (1-95) was used as the analyte. The binding of MEF2A to HDAC4 at various concentrations generated a series of well-defined sensorgrams (data not shown). […] These technical limitations made it difficult to obtain a quantitative binding constant.

[1] = test system: acetylation of histone but not tubulin; conditions: cited from earlier work
frataxin expression = conditions: Friedreich's ataxia; cited from earlier work
GAL4-VP16 = conditions: 10 μM; non-specific inhibition
HDAC = conditions: cited from earlier work
MEF2 = assay: in vitro binding, method not stated

Nc1ccccc1NC(=O)CCCCCCC(=O)Nc1ccccc1 [BML-210, suberoylanilide orthoaminoanilide]
normalized luciferase activity in MEF2-HDAC luciferase reporter assay (HDAC4:MEF2 interaction; 24 hrs after treatment (FIG. 4)): decreased in a dose dependent manner
direct binding to MEF2 by Biacore (MEF2A (1-95)): beyond the detection limit
binding of MEF2A to immobilized HDAC4 after incubation with compound (MEF2A (1-95)): bind MEF2 competitively with HDAC4; also recorded: competitive inhibition

Nc1ccccc1NC(=O)CCCCCC(=O)Nc1ccccc1 [PAOA, pimeloylanilide orthoaminoanilide]
expression of HDAC4-VP16 (HDAC4:MEF2 interaction): did not affect
decrease of reporter signal driven by GAL4-MEF2D and HDAC4-VP16 (HDAC4:MEF2 interaction; 10 μM): about 26 fold
inhibition of the reporter signal in the mammalian two-hybrid assay (HDAC4:MEF2 interaction; GAL4-MEF2D/HDAC4-VP16, Hela cells): inhibited the reporter signal in a dose dependent manner
IC50 (HDAC4:MEF2 interaction; based on the mammalian two-hybrid assay): ~5 µM
Kd (HDAC4:MEF2 interaction; estimated assuming equilibrium HDAC4 concentration ~0.5 μM and HDAC4:MEF2 Kd 0.47 μM, read-out: Kd for binding to MEF2 (estimated)): ~5 µM
selective induction of histone versus tubulin acetylation [1]: selectively induce acetylation of histone but not tubulin
frataxin expression / induction (frataxin expression): enhance the expression of frataxin
binding of MEF2A to immobilized HDAC4 after incubation with compound (MEF2A (1-95)): dose dependent decrease; also recorded: binds MEF2 competitively with HDAC4
reduction of reporter signal driven by GAL4-VP16 (GAL4-VP16): 5.6 fold

O=C(CCCCCCC(=O)Nc1ccccc1)NO [SAHA, Vorinostat]
frataxin expression / induction (frataxin expression): no effect; also recorded: did not have this type of activity

Cc1ccc(NC(=O)CCCCCC(=O)Nc2ccccc2N)cc1 [compound 106, N^1-(2-aminophenyl)-N^7-p-tolylheptanediamide]
frataxin expression / induction (frataxin expression): very active

CC(/C=C/C(=O)NO)=C\[C@@H](C)C(=O)c1ccc(N(C)C)cc1 [trichostatin A (TSA), trichostatin A]
IC50 HDAC inhibition (HDAC): low nanomolar range
frataxin expression / induction (frataxin expression): no effect

HDAC4 mutant Val180Lys (in vitro binding) (from UniProt P56524 155-220)
Kd (MEF2): 810 nM
weakening of binding against wild type HDAC4 (MEF2): 60%

wild type HDAC4 (in vitro binding) (from UniProt P56524 155-220)
Kd (MEF2): 470 nM
